The values below come from US20020104106A1, “Non-mammalian transgenic animal model for cellular proliferative diseases” (priority 1999, published 2002).

The test system of the test is tumor fly model. As to the kind of experiment: Screening assay: extracts fed to v-myb tumor flies, delay of tumor progression. Format: in vivo, Drosophila melanogaster. The conditions noted are these: extract concentration fed to the larva/fly that delayed tumor progression by 20% or more. How it is done:
In the screening methods of the subject invention, a quantity of a candidate agent is generally orally administered to the fly. Following oral administration, the affect of the candidate agent on the metastatic tumors (or appearance thereof) of the fly is determined, typically by comparison with a control (i.e. a transgenic fly to which the candidate agent has not been administered). The affect of the candidate agent is determined by determining whether one or more of the phenotypic characteristics of the neoplastic condition are exacerbated or ameliorated in the test fly as compared to the control fly, where characteristics that are monitored include tumor growth, tumor metastasis, and the like. The candidate agent is generally orally administered to the fly by mixing the agent into the fly nutrient medium, e.g. water, aqueous solution with additional nutrient agents, etc., and placing the medium in the presence of the fly, (either the larva or adult fly, usually the adult fly) such that the fly feeds on the medium. Generally a plurality of assay mixtures are run in parallel with different agent concentrations to obtain a differential response to the various concentrations of candidate agent. Typically, one of these concentrations serves as a negative control, i.e. no compound. […]

As for `CC(C)=CCC/C(C)=C/C=C/C(C)=C/C=C/C(C)=C/C=C/C=C(C)/C=C/C=C(C)/C=C/C=C(\C)CCC=C(C)C` [Lycopene], the “Positive antitumor activity dose range” value is “.01%-100%”.
